Source: patent US5442064A, “Carboxylic acid derivatives, pharmaceutical compositions containing these compounds and processes for preparing them” (Dr. Karl Thomae GmbH, priority 1992, dated 1995)
Counter-ions that a name gives are not always drawn.

Experiments:
platelet aggregation = test: Inhibition of platelet aggregation (collagen-induced, Born and Cross, platelet-rich plasma of healthy volunteers); format: cell-based; conditions: Homo sapiens, Platelet, 10 minutes preincubation at 37° C
Protocol: In order to do this, donor blood is taken from an anticubital vein and anticoagulated with trisodium citrate (final concentration 13 mM). The blood is centrifuged for 10 minutes at 170×g and the supernatant platelet-rich plasma (PRP) is removed. The remaining blood is vigorously centrifuged once more in order to obtain plasma. The PRP is diluted 1:10 with autologous plasma. 750 μl are incubated with 50 μl of physiological saline solution, 100 μl of test substance solution, 50 μl of ^14 C-sucrose (3,700 Bq) and 50 μl of ^3 H-BIBU 52 (final concentration: 5 nM) at ambient temperature for 20 minutes. In order to measure the non-specific binding, 5μl of BIBU 52 (final concentration: 30 μM) are used instead of the test substance. The samples are centrifuged for 20 seconds at 10,000×g and the supernatant is poured off. 100 μl thereof are measured in order to determine the free ligand. The pellet is dissolved in 500 μl of 0.2N NaOH, 450 μl are mixed with 2 ml of scintillator and 25 μl of 5N HCl and measured. The residual plasma remaining in the pellet is determined from the ^14 C-content and the bound ligand is determined from the ^3 H-measurement. After the non-specific binding has been deducted, the pellet activity is plotted against the concentration of the test substance and the concentration for 50% inhibition of binding is determined. 2. Antithrombotic activity The thrombocyte aggregation is measured using the method of Born and Cross (J. Physiol. 170: 397 (1964)) in platelet-rich plasma taken from healthy volunteers. To inhibit coagulation the blood is mixed with 3.14% sodium citrate in a volume ratio of 1:10. The pattern of the decrease in optical density of the platelet suspension is photometrically measured and recorded after the addition of the aggregation-triggering substance. The rate of aggregation is determined from the angle of inclination of the density curve. The point on the curve where there is maximum light transmittance is used to calculate the optical density. The concentration of collagen used is as small as possible but sufficient to produce an irreversible reaction curve. Standard commercial collagen produced by Hormonchemie of Munich is used. Before the addition of the collagen the plasma is incubated for 10 minutes with the substance at 37° C. From the concentration/activity curve an EC50 is determined, which describes the concentration giving a 50% change in the optical density in terms of the inhibition of aggregation.

human thrombocytes = test: Competitive binding of ^3 H-BIBU 52/test substance to human thrombocytes; conditions: human thrombocytes in plasma; ^3 H-BIBU 52 5 nM; ambient temperature, 20 minutes
Protocol: 1. Competitive binding of ^3 H-BIBU 52/test substance to human thrombocytes: […] Case 5/1093-FL), which replaces the ^125 I fibrinogen ligand known from the literature and various concentrations of the substance to be tested. The free and bound ligand is separated by centrifuging and quantified by scintillation counting. The inhibition of ^3 H-BIBU 52 binding by the test substance is determined from the measurements obtained. In order to do this, donor blood is taken from an anticubital vein and anticoagulated with trisodium citrate (final concentration 13 mM). The blood is centrifuged for 10 minutes at 170×g and the supernatant platelet-rich plasma (PRP) is removed. The remaining blood is vigorously centrifuged once more in order to obtain plasma. The PRP is diluted 1:10 with autologous plasma. 750 μl are incubated with 50 μl of physiological saline solution, 100 μl of test substance solution, 50 μl of ^14 C-sucrose (3,700 Bq) and 50 μl of ^3 H-BIBU 52 (final concentration: 5 nM) at ambient temperature for 20 minutes. In order to measure the non-specific binding, 5μl of BIBU 52 (final concentration: 30 μM) are used instead of the test substance. The samples are centrifuged for 20 seconds at 10,000×g and the supernatant is poured off. 100 μl thereof are measured in order to determine the free ligand. The pellet is dissolved in 500 μl of 0.2N NaOH, 450 μl are mixed with 2 ml of scintillator and 25 μl of 5N HCl and measured. The residual plasma remaining in the pellet is determined from the ^14 C-content and the bound ligand is determined from the ^3 H-measurement. After the non-specific binding has been deducted, the pellet activity is plotted against the concentration of the test substance and the concentration for 50% inhibition of binding is determined. 2. Antithrombotic activity

mice = test: Tolerability after intravenous administration to mice; format: in vivo; conditions: 30 mg/kg, three mice in each case
[1] = tested on: collagen-induced thrombocyte aggregation; test: Collagen-induced thrombocyte aggregation ex vivo after oral administration, Rhesus monkeys; format: in vivo; conditions: 1 mg/kg, collagen 2 μg/ml
Protocol: The inhibition of thrombocyte aggregation after oral administration of the test substance is determined ex vivo on Rhesus monkeys. Directly before the oral administration of the test substance suspended in Natrosol, a blood sample is taken from the cubital vein of the animals to provide a reference value. At specified times after the administration of the substance, fresh blood samples are taken and investigated as follows. The whole blood mixed with 3.14% sodium citrate in a ratio by volume of 1:10 is centrifuged at 200×g for 15 minutes. The supernatant, platelet-rich plasma, is carefully removed. From the sediment which is rich in erythrocytes, the platelet-poor plasma is obtained as supernatant,by centrifuging at 4000×g for 10 minutes. The thrombocyte aggregation triggered with collagen (Hormonchemie, Munich; 2 μg/ml final concentration in platelet-rich plasma) in these ex vivo samples is measured photometrically using the method of Born and Cross (J. Physiol. 170, 397 (1964)). The maximum light transmittance of the platelet-rich plasma, measured after collagen stimulation, is compared with the reference value in order to determine the inhibition of aggregation at the various times of blood sampling after the administration of the substance, relative to the reference value.

| Structure (SMILES) | EC50 (platelet aggregation) [nM] | IC50 (human thrombocytes) [nM] | tolerability (animals died) (mice) | inhibits the collagen-induced thrombocyte aggregation ex vivo (duration) [1] |
| --- | --- | --- | --- | --- |
| Cl.Cl.N=C(N)c1ccc(N2CCN(C(=O)N[C@H]3CC[C@H](C(=O)O)CC3)CC2)nc1 [2(7), 1-(5-amidinopyrid-2-yl)-4-[N-(trans-4-carboxycyclohexyl)-aminocarbonyl]-piperazine-dihydrochloride] | 80 | 29 | no animals died | – |
| CN(C(=O)N1CCN(c2ccc(C(=N)N)cn2)CC1)[C@H]1CC[C@H](C(=O)O)CC1.Cl.Cl [2(8), 1-(5-amidinopyrid-2-yl)-4-[N-(trans-4-carboxycyclohexyl)-N-methyl-aminocarbonyl]-piperazine-dihydrochloride] | 60 | 27 | no animals died | – |
| COC(=O)[C@H]1CC[C@H](NC(=O)C2CCN(c3ccc(C(=N)N)cc3)CC2)CC1.Cl [Example 1(24), 1-(4-amidinophenyl)-4-[N-[trans-4-(methoxycarbonyl)-cyclohexyl]-aminocarbonyl]-piperidine-hydrochloride] | 220 | 4400 | – | more than 4 hours |
| Cl.Cl.N=C(N)c1ccc(N2CCN(C(=O)N[C@H]3CC[C@H](C(=O)O)CC3)CC2)cc1.O [Example 2, 1-(4-Amidinophenyl)-4-[N-[trans-4-carboxycyclohexyl]aminocarbonyl]-piperazine-dihydrochloride-hydrate] | 40 | 7.4 | no animals died | – |
| NCc1ccc(N2CCN(C(=O)N[C@H]3CC[C@H](C(=O)O)CC3)CC2)cc1 [Example 3, 1-(4-Aminomethylphenyl)-4-[N-(trans-4-carboxycyclohexyl)-aminocarbonyl]-piperazine] | 230 | 130 | no animals died | – |
| COC(=O)N=C(N)c1ccc(N2CCN(C(=O)N[C@H]3CC[C@H](C(=O)OC)CC3)CC2)cc1 [Example 5, 1-[4-(N-Methoxycarbonyl-amidinc)-phenyl]-4-[N-[trans-4-(methoxycarbonyl)-cyclohexyl]-aminocarbonyl]-piperazine] | – | – | no animals died | – |
| CCOC(=O)[C@H]1CC[C@H](NC(=O)N2CCN(c3ccc(C(=N)N)cc3)CC2)CC1 [Example 8, 1-(4-Amidinophenyl)-4-[N-[trans-4-(ethoxycarbonyl)-cyclohexyl]-aminocarbonyl]-piperazine-dihydrochloride] | 190 | 540 | – | – |
